Reference: ChEMBL document CHEMBL1909046, “DrugMatrix in vitro pharmacology data”

Assays:
[1] = biological target: Beta-1 adrenergic receptor (Homo sapiens, UniProt P08588); experiment: DRUGMATRIX: Adrenergic beta1 radioligand binding (ligand: [125I] Cyanopindolol); format: cell membranes, CHO-K1, Membrane; details: cho-k1; Not Active = under 50% inhibition at 10 µM
[2] = biological target: Beta-2 adrenergic receptor (Homo sapiens, UniProt P07550); experiment: DRUGMATRIX: Adrenergic beta2 radioligand binding (ligand: [3H] CGP-12177); format: cell membranes, CHO, Membrane; details: cho; Not Active = under 50% inhibition at 10 µM
[3] = DRUGMATRIX: ATPase, Na+/K+ enzyme inhibition (substrate: ATP); format: tissue-based, Sus scrofa, Heart; details: Not Active = under 50% inhibition at 10 µM
[4] = DRUGMATRIX: GABAA, Muscimol, Central radioligand binding (ligand: [3H] Muscimol); format: cell membranes, Rattus norvegicus, Wistar, Brain, Membrane; details: Not Active = under 50% inhibition at 10 µM
Melanocortin receptor 4 = Melanocortin receptor 4 (Homo sapiens, UniProt P32245); format: cell membranes, Membrane; details: hek293; further: in other assays of this panel Not Active means under 50% inhibition at 10 µM
Melanocortin receptor 5 = Melanocortin receptor 5 (Homo sapiens, UniProt P33032); format: cell membranes, HEK293, Membrane; details: hek293; further: in other assays of this panel Not Active means under 50% inhibition at 10 µM
[5] = biological target: cGMP-specific 3',5'-cyclic phosphodiesterase (Homo sapiens, UniProt O76074); experiment: DRUGMATRIX: Phosphodiesterase PDE5 enzyme inhibition (substrate: [3H]cGMP + cGMP); format: tissue-based, Platelet; details: platelet; Not Active = under 50% inhibition at 10 µM
Cytochrome P450 2A6 = biological target: T1, Cytochrome P450 2A6 (Homo sapiens, UniProt P11509); details: bti-tn-5b1-4; further: in other assays of this panel Not Active means under 50% inhibition at 10 µM
T1 sequence (P11509 whole entry): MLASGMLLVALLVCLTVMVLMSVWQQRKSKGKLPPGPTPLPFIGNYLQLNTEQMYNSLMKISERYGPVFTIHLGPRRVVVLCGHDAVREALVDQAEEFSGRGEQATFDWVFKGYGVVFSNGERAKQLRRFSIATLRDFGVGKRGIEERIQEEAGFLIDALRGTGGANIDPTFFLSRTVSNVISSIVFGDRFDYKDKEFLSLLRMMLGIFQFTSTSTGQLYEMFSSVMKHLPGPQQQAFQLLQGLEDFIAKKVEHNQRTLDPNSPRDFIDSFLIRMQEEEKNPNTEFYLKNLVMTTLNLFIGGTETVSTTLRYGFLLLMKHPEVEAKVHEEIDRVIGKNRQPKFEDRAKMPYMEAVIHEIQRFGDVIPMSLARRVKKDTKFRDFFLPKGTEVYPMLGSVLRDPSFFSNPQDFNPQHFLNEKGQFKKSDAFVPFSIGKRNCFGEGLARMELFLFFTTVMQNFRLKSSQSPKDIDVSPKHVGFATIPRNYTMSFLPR

Glucocorticoid receptor = biological target: T2, Glucocorticoid receptor (Homo sapiens, UniProt P04150); details: hela s3; further: in other assays of this panel Not Active means under 50% inhibition at 10 µM
T2 sequence (P04150 whole entry): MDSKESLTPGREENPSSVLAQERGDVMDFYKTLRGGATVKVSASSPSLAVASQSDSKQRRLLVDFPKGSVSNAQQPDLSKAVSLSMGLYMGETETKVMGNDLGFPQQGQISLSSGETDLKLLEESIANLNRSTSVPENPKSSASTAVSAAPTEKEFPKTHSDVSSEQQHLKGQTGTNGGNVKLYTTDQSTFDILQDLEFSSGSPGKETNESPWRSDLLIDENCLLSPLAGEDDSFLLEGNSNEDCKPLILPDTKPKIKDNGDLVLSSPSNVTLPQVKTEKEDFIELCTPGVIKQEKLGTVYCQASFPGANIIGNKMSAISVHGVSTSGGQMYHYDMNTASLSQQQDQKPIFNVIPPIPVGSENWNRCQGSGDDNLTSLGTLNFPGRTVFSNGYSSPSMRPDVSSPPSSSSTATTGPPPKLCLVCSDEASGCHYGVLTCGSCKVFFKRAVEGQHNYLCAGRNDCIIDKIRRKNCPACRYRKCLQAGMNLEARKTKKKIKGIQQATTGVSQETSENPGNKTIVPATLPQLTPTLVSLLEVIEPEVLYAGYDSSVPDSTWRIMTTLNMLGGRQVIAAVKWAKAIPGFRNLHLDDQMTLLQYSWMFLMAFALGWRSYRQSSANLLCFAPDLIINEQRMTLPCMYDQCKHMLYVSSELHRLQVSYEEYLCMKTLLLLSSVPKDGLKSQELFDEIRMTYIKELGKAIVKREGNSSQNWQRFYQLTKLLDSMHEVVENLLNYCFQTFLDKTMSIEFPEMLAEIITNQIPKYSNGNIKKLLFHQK

Chain of Beta-1 adrenergic receptor (P08588 whole entry): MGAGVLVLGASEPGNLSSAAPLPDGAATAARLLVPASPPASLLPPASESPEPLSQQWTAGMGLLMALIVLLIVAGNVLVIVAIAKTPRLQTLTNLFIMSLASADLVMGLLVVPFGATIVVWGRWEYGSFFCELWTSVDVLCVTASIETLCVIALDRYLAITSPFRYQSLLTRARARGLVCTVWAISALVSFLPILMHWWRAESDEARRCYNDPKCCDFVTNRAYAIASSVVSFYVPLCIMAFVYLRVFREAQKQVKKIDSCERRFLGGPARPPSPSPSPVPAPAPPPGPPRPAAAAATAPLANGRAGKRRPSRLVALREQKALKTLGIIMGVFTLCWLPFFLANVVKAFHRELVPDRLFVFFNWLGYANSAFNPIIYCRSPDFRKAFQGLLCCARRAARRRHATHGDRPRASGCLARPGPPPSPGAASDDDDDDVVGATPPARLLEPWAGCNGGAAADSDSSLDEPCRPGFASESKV
Chain of Melanocortin receptor 4 (P32245 whole entry): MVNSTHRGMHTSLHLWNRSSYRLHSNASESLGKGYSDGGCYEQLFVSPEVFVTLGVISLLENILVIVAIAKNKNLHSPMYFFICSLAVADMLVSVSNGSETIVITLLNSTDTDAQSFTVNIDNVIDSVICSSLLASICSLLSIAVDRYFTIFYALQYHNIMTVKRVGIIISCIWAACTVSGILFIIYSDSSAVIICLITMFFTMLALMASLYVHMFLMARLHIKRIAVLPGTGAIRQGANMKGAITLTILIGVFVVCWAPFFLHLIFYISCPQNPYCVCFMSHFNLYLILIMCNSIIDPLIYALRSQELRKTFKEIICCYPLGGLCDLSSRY
Chain of Melanocortin receptor 5 (P33032 whole entry): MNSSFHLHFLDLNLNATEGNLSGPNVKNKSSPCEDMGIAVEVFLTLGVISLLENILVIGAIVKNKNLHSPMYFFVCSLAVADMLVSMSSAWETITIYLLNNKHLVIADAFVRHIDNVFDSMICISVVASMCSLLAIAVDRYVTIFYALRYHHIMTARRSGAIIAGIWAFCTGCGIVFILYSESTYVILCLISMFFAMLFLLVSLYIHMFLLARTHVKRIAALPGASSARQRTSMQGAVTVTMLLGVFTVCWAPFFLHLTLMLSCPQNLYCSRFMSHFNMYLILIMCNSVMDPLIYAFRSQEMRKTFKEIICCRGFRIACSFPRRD

OC[C@H]1O[C@@H]2O[C@H]3[C@H](O)[C@@H](O)[C@@H](O[C@H]4[C@H](O)[C@@H](O)[C@@H](O[C@H]5[C@H](O)[C@@H](O)[C@@H](O[C@H]6[C@H](O)[C@@H](O)[C@@H](O[C@H]7[C@H](O)[C@@H](O)[C@@H](O[C@H]1[C@H](O)[C@H]2O)O[C@@H]7CO)O[C@@H]6CO)O[C@@H]5CO)O[C@@H]4CO)O[C@@H]3CO [ALFADEX]
Not Active: IC50 [1] | IC50 [2] | IC50 [3] | Ki [3] | IC50 [4] | Ki [4] | IC50 (Melanocortin receptor 4) | IC50 (Melanocortin receptor 5) | IC50 [5] | IC50 (Cytochrome P450 2A6) | Ki (Cytochrome P450 2A6) | IC50 (Glucocorticoid receptor)

Nc1nc(F)nc2c1ncn2[C@@H]1O[C@H](CO)[C@@H](O)[C@@H]1O [FLUDARABINE]
Not Active: IC50 [1] | IC50 [2] | IC50 [3] | Ki [3] | IC50 [4] | Ki [4] | IC50 (Melanocortin receptor 4) | IC50 (Melanocortin receptor 5) | IC50 [5] | IC50 (Cytochrome P450 2A6) | Ki (Cytochrome P450 2A6) | IC50 (Glucocorticoid receptor)

CARBOXYMETHYLCELLULOSE
Not Active: IC50 [1] | Ki [1] | IC50 [2] | Ki [2] | IC50 [3] | Ki [3] | IC50 [4] | Ki [4] | IC50 (Melanocortin receptor 4) | Ki (Melanocortin receptor 4) | IC50 (Melanocortin receptor 5) | Ki (Melanocortin receptor 5) | IC50 [5] | Ki [5] | IC50 (Cytochrome P450 2A6) | Ki (Cytochrome P450 2A6) | IC50 (Glucocorticoid receptor) | Ki (Glucocorticoid receptor)

NC(N)=Nc1nc(CSCCC(N)=NS(N)(=O)=O)cs1 [FAMOTIDINE]
Not Active: IC50 [1] | IC50 [2] | IC50 [3] | Ki [3] | IC50 [4] | Ki [4] | IC50 (Melanocortin receptor 4) | IC50 (Melanocortin receptor 5) | IC50 [5] | IC50 (Cytochrome P450 2A6) | Ki (Cytochrome P450 2A6) | IC50 (Glucocorticoid receptor)

COc1ccc(C[C@H](N)C(=O)N[C@H]2[C@@H](O)[C@H](n3cnc4c(N(C)C)ncnc43)O[C@@H]2CO)cc1 [PUROMYCIN]
Not Active: IC50 [1] | IC50 [2] | IC50 [3] | Ki [3] | IC50 [4] | Ki [4] | IC50 (Melanocortin receptor 4) | IC50 (Melanocortin receptor 5) | IC50 [5] | IC50 (Cytochrome P450 2A6) | Ki (Cytochrome P450 2A6) | IC50 (Glucocorticoid receptor)
